From article PMC6318789 (Journal of the American Chemical Society, 2015)

Target: p300 (Homo sapiens, UniProt Q09472)
Type: binding

Sequence of p300 (Q09472 323-423): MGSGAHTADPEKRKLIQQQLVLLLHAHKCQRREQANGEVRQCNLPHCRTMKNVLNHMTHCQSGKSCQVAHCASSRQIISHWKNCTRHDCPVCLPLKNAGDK
Sequence of p300 (Q16665 786-826 partner): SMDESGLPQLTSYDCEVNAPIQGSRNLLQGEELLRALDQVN

IC50: ~75 µM
Compound: COc1ccc(C2(O)N=C3N=CC=C4c5ccccc5N=C2N43)cc1 (racemic) [compound 1, eudistidine A]
